Reference: PubChem BioAssay AID248 (DTP/NCI, 2004)
Inconclusive results and toxic doses are left out. No stated cut-off is given here; in the data, active means T/C of 150% or more; inactive means T/C below 125%.

Tested on: L1210 leukemia ip in BDF1 mice, survival T/C
Assay: NCI In Vivo Anticancer Drug Screen. Data for tumor model L1210 Leukemia (intraperitoneal) in B6D2F1 (BDF1) mice
Details: endpoint: mean survival time, higher = longer survival
Summary of the method: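 Antitumor effect is assessed in tumor-bearing animals. Survival in the compound arm is compared with a vehicle-dosed control arm and expressed as their quotient.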

[1] = dose: 100.0 mg/kg/injection, schedule: Q01DX001 (ip), vehicle: carboxymethylcellulose (CMC)
[2] = dose: 200.0 mg/kg/injection, schedule: Q01DX001 (ip), vehicle: carboxymethylcellulose (CMC)
[3] = dose: 400.0 mg/kg/injection, schedule: Q01DX001 (ip), vehicle: carboxymethylcellulose (CMC)
[4] = dose: 100.0 mg/kg/injection, schedule: Q04DX003 (ip), vehicle: saline with Tween-80
[5] = dose: 200.0 mg/kg/injection, schedule: Q04DX003 (ip), vehicle: saline with Tween-80
[6] = dose: 400.0 mg/kg/injection, schedule: Q04DX003 (ip), vehicle: saline with Tween-80
[7] = dose: 100.0 mg/kg/injection, schedule: Q04DX003 (ip), vehicle: gum acacia
[8] = dose: 200.0 mg/kg/injection, schedule: Q04DX003 (ip), vehicle: gum acacia
[9] = dose: 400.0 mg/kg/injection, schedule: Q04DX003 (ip), vehicle: gum acacia
[10] = dose: 100.0 mg/kg/injection, schedule: Q01DX009 (ip), vehicle: Klucel (hydroxypropylcellulose) (HPC)
[11] = dose: 200.0 mg/kg/injection, schedule: Q01DX009 (ip), vehicle: Klucel (hydroxypropylcellulose) (HPC)
[12] = dose: 400.0 mg/kg/injection, schedule: Q01DX009 (ip), vehicle: Klucel (hydroxypropylcellulose) (HPC)
[13] = dose: 100.0 mg/kg/injection, schedule: Q04DX003 (ip), vehicle: Klucel (hydroxypropylcellulose) (HPC)
[14] = dose: 200.0 mg/kg/injection, schedule: Q04DX003 (ip), vehicle: Klucel (hydroxypropylcellulose) (HPC)
[15] = dose: 400.0 mg/kg/injection, schedule: Q04DX003 (ip), vehicle: Klucel (hydroxypropylcellulose) (HPC)

Measured: T/C

O=C(O)Cc1nc2ccccc2n1CC(=O)O
inactive: dose: 100.0 mg/kg/injection, schedule: Q04DX002 (ip), vehicle: Klucel (hydroxypropylcellulose) (HPC) 96 % of control | dose: 200.0 mg/kg/injection, schedule: Q04DX002 (ip), vehicle: Klucel (hydroxypropylcellulose) (HPC) 93 % of control | dose: 400.0 mg/kg/injection, schedule: Q04DX002 (ip), vehicle: Klucel (hydroxypropylcellulose) (HPC) 100 % of control

O=C1CCSc2ccccc21
inactive: dose: 37.5 mg/kg/injection, schedule: Q01DX009 (ip), vehicle: saline 102 % of control | dose: 75.0 mg/kg/injection, schedule: Q01DX009 (ip), vehicle: saline 111 % of control | [1] 92 % of control | dose: 100.0 mg/kg/injection, schedule: Q01DX009 (ip), vehicle: saline sonified 105 % of control | dose: 100.0 mg/kg/injection, schedule: Q04DX003 (ip), vehicle: other 96 % of control | dose: 150.0 mg/kg/injection, schedule: Q01DX009 (ip), vehicle: saline 104 % of control | [2] 106 % of control | dose: 200.0 mg/kg/injection, schedule: Q01DX009 (ip), vehicle: saline sonified 93 % of control | dose: 200.0 mg/kg/injection, schedule: Q04DX003 (ip), vehicle: other 96 % of control | [3] 111 % of control | dose: 400.0 mg/kg/injection, schedule: Q01DX009 (ip), vehicle: saline sonified 97 % of control | dose: 400.0 mg/kg/injection, schedule: Q04DX003 (ip), vehicle: other 102 % of control

C[N+]1(C)CCC(=O)CC1
inactive: [4] 98 % of control | [5] 98 % of control | [6] 95 % of control

CN(C)c1ccc2c(c1)/C(=N/O)c1ccccc1-2
inactive: [1] 103 % of control | [2] 105 % of control | [3] 100 % of control

O=C(O)c1cc(CBr)cc(CBr)c1
inactive: dose: 3.13 mg/kg/injection, schedule: Q01DX009 (ip), vehicle: saline with Tween-80 97 % of control | dose: 6.25 mg/kg/injection, schedule: Q01DX001 (ip), vehicle: saline with Tween-80 102 % of control | dose: 6.25 mg/kg/injection, schedule: Q01DX009 (ip), vehicle: saline with Tween-80 101 % of control | dose: 12.5 mg/kg/injection, schedule: Q01DX001 (ip), vehicle: saline with Tween-80 113 % of control

Cc1cc(Cl)ccc1NC(=O)Nc1ccccc1
inactive: dose: 100.0 mg/kg/injection, schedule: Q01DX009 (ip), vehicle: gum acacia 87 % of control | [7] 87 % of control | dose: 200.0 mg/kg/injection, schedule: Q01DX009 (ip), vehicle: gum acacia 89 % of control | [8] 89 % of control | dose: 400.0 mg/kg/injection, schedule: Q01DX009 (ip), vehicle: gum acacia 87 % of control | [9] 90 % of control

COc1cc(NC(C)=O)c2ncccc2c1NC(C)=O
inactive: dose: 50.0 mg/kg/injection, schedule: Q01DX001 (ip), vehicle: carboxymethylcellulose (CMC) 96 % of control | [1] 102 % of control | [2] 96 % of control | [3] 94 % of control

CN(C)c1ccc(/C=N/NC(=S)Nc2ccccc2)cc1
inactive: [10] 109 % of control | [11] 98 % of control | [12] 94 % of control

CC1C=CCC(C)(C)C1 (configuration not stated)
inactive: [1] 95 % of control | [2] 100 % of control | dose: 200.0 mg/kg/injection, schedule: Q01DX009 (ip), vehicle: carboxymethylcellulose (CMC) 94 % of control | [3] 114 % of control | dose: 400.0 mg/kg/injection, schedule: Q01DX009 (ip), vehicle: carboxymethylcellulose (CMC) 90 % of control | dose: 600.0 mg/kg/injection, schedule: Q01DX009 (ip), vehicle: carboxymethylcellulose (CMC) 92 % of control

O=C(c1ccccc1)c1ccc(Oc2ccccc2)cc1
inactive: [7] 91 % of control | [8] 97 % of control | [9] 91 % of control

CC(=O)CC(=O)CF.CC(=O)CC(=O)CF.[Cu]
inactive: dose: 12.0 mg/kg/injection, schedule: Q01DX001 (ip), vehicle: saline 90 % of control | dose: 25.0 mg/kg/injection, schedule: Q01DX001 (ip), vehicle: saline 107 % of control

Cc1cc(N(CCCl)CCCl)ccc1C=Nc1ccc(-c2nc(Cc3ccccc3)sc2C)cc1
inactive: [1] 117 % of control | [2] 98 % of control | [3] 110 % of control

ICc1nc2ccccc2[nH]1
inactive: dose: 9.38 mg/kg/injection, schedule: Q01DX001 (ip), vehicle: steriod suspending solution 95 % of control | dose: 18.75 mg/kg/injection, schedule: Q01DX001 (ip), vehicle: steriod suspending solution 105 % of control | dose: 37.5 mg/kg/injection, schedule: Q01DX001 (ip), vehicle: steriod suspending solution 94 % of control

N#CSCC(CCCCCCCCC(=O)O)SC#N (configuration not stated)
inactive: dose: 12.5 mg/kg/injection, schedule: Q04DX002 (ip), vehicle: saline with Tween-80 91 % of control | dose: 25.0 mg/kg/injection, schedule: Q04DX002 (ip), vehicle: saline with Tween-80 100 % of control

COC(=O)C(=[N+]=[N-])C(=O)OC
inactive: dose: 100.0 mg/kg/injection, schedule: Q01DX001 (ip), vehicle: Klucel (hydroxypropylcellulose) (HPC) 92 % of control | [10] 98 % of control | [13] 102 % of control | dose: 200.0 mg/kg/injection, schedule: Q01DX001 (ip), vehicle: Klucel (hydroxypropylcellulose) (HPC) 92 % of control | [11] 98 % of control | [14] 101 % of control | dose: 400.0 mg/kg/injection, schedule: Q01DX001 (ip), vehicle: Klucel (hydroxypropylcellulose) (HPC) 93 % of control | [12] 107 % of control | [15] 104 % of control

O=C(O)c1ccnc(C(=O)O)c1
inactive: dose: 100.0 mg/kg/injection, schedule: Q01DX009 (ip), vehicle: saline 89 % of control | dose: 100.0 mg/kg/injection, schedule: Q04DX003 (ip), vehicle: saline sonified 98 % of control | dose: 200.0 mg/kg/injection, schedule: Q01DX009 (ip), vehicle: saline 93 % of control | dose: 200.0 mg/kg/injection, schedule: Q04DX003 (ip), vehicle: saline sonified 93 % of control | dose: 400.0 mg/kg/injection, schedule: Q01DX009 (ip), vehicle: saline 97 % of control | dose: 400.0 mg/kg/injection, schedule: Q04DX003 (ip), vehicle: saline sonified 92 % of control

O=c1c(Cl)c(C(Cl)(Cl)Cl)[nH]c2ccc([N+](=O)[O-])cc12
inactive: dose: 25.0 mg/kg/injection, schedule: Q01DX001 (ip), vehicle: saline with Tween-80 101 % of control | dose: 50.0 mg/kg/injection, schedule: Q01DX001 (ip), vehicle: saline with Tween-80 101 % of control

Cl/N=C(/c1ccccc1)c1ccc(Cl)cc1
inactive: [13] 105 % of control | [14] 102 % of control | [15] 104 % of control

CC1CCc2nc3ccccc3nc21 (configuration not stated)
inactive: dose: 100.0 mg/kg/injection, schedule: Q01DX001 (ip), vehicle: saline 91 % of control | dose: 200.0 mg/kg/injection, schedule: Q01DX001 (ip), vehicle: saline 97 % of control | dose: 400.0 mg/kg/injection, schedule: Q01DX001 (ip), vehicle: saline 91 % of control

CCN(CC)CCC(CNc1c(C)cnc2cc(Cl)ccc12)c1ccc(Cl)cc1 (configuration not stated)
inactive: [4] 100 % of control | [5] 100 % of control | [6] 94 % of control

CCCOC(=O)NCCSC(=O)OCCC
inactive: dose: 100.0 mg/kg/injection, schedule: Q01DX001 (ip), vehicle: saline with Tween-80 95 % of control | dose: 200.0 mg/kg/injection, schedule: Q01DX001 (ip), vehicle: saline with Tween-80 95 % of control | dose: 400.0 mg/kg/injection, schedule: Q01DX001 (ip), vehicle: saline with Tween-80 108 % of control

CCOC(=O)/C=C\SCC(=O)OCC
inactive: dose: 100.0 mg/kg/injection, schedule: Q04DX002 (ip), vehicle: saline 104 % of control | dose: 200.0 mg/kg/injection, schedule: Q04DX002 (ip), vehicle: saline 104 % of control | dose: 400.0 mg/kg/injection, schedule: Q04DX002 (ip), vehicle: saline 93 % of control

Cc1cc(=O)[nH]c(NCCCCCC(=O)O)n1
inactive: dose: 25.0 mg/kg/injection, schedule: Q04DX003 (ip), vehicle: saline 104 % of control | dose: 50.0 mg/kg/injection, schedule: Q04DX003 (ip), vehicle: saline 104 % of control | dose: 100.0 mg/kg/injection, schedule: Q04DX003 (ip), vehicle: saline 101 % of control
